Results reported in patent US11167133B2, “Intratumoral modulation therapy” (LONDON HEALTH SCIENCES CENTRE RESEARCH INC., priority 2015, dated 2021).

What was measured:
[1] = test system: primary patient GBM cells; experiment: Annexin V / propidium iodide flow cytometry of apoptotic and dead cells; assay type: cell-based, human; settings: 72 h; for combined fraction of apoptotic (annexin+) and dead (annexin+ and PI+) GBM cells: mean±SD, cells from 3 patients
Source text: (§1) This study was approved by the Research Ethics Board at the University of Western Ontario (Approval #17290). GBM specimens were obtained at the time of operative resection and placed immediately into phosphate-buffered saline (PBS) with 0.5% fetal bovine serum (FBS; Life Technologies, Burlington, ON, Canada). The tissue was washed, digested and filtered through a 100-μm cell strainer. Samples were then centrifuged and resuspended in Dulbecco's modified Eagle's medium (DMEM; Wisent Bioproducts, St. Bruno, PQ, Canada) supplemented with 10% FBS, 1% non-essential amino acids and 1% penicillin/streptomycin (Life Technologies) before plating to a 35-mm dish for 30 min to allow blood cells to separate. The upper cell suspension was then transferred to two wells of a 24-well plate, freshly pre-coated with 10 μg/ml poly-L-lysine (Trevigen Inc., Gaithersburg, Md., USA) and incubated at 37° C. with 5% CO2. Cultures were passaged at approximately 80% confluence and split 1:2 using 0.25% trypsin with 0.53 mM ethylenediaminetetraacetic acid (EDTA; Wisent). The medium was changed twice per week. All assays were conducted using GBM cells from cultures at passages 4 through 12.
GBM cells (2×10^5 cells in 2 ml maintenance DMEM) were transferred to the 35 mm wells in standard 6-well plates and allowed to grow to ˜70% confluence before treatment. A clinical grade, platinum-based reference strip electrode (AD-Tech, Racine, Wis., USA) around the periphery and a stimulating electrode (Medtronic Ltd., Brampton, ON, Canada) in the centre of the well. The electrodes were connected to a waveform generator set to produce monophasic, square-wave pulses of 4 volts, with pulse width of 90 μsec and frequency of 130 Hz. This setting is in the range of that commonly used in clinical neuromodulation treatment for symptoms of movement disorders, such as Parkinson's disease (11). Control wells (i.e. sham-treated) were fitted with electrodes but no current was delivered. Treatment durations between 24-96 h were used to allow adequate time for antitumor effect while avoiding the need for medium change once IMT was initiated. Thus, all intact GBM cells, adherent and floating, contributed to the viability measures described below. GBM cells treated with chemotherapy were plated with DMEM containing temozolomide (50 μM; Sigma Aldrich) in 35 mm wells fitted with the IMT apparatus and received 72 h of concomitant IMT or sham conditions. The 50 μM temozolomide concentration reflects clinically relevant levels corresponding to the in vivo plasma concentration of 150 mg/m2 in the adjuvant phase of GBM treatment (24).
An Annexin V Apoptosis Detection Kit with propidium iodide (PI; BioLegend, San Diego, Calif., USA) was used for identification of apoptotic and dead cells, as per the manufacturer's instructions. Cell fractions were analyzed using a Becton Dickinson LSR II SORP flow cytometer running FACSDiva software (BD Biosciences, Mississauga, ON, Canada). Cells were first gated on forward scatter (FSC-) versus side scatter (SSC-) characteristics before excluding doublets using consecutive gating FSC-Area versus FSC-Width and SSC-Area versus SSC-Width plots. The populations of annexin V+/PI−, annexin V+/PI+, annexin V−/PI+ and annexin V−/PI− were then calculated with quadrant gates. Approximately 30,000 single cells were acquired per sample at a maximum event rate of 5,000 events per second. Data were analyzed using FlowJo v 9.6.3 (TreeStar, Inc., Ashland, Oreg., USA).

[2] = test system: primary patient GBM cells; experiment: MTT cell viability assay; assay type: cell-based, human; settings: 72 h, mean±SD, 3 patients
Source text: as §1, with “Cultures were passaged at approximately 80% confluence and split 1:2 using 0.25% trypsin with 0.53 mM ethylenediaminetetraacetic acid (EDTA; Wisent). The medium was changed twice per week. All assays were conducted using GBM cells from cultures at passages 4 through 12.” left out
Primary human patient GBM cells (1×10^5 cells in 2 ml maintenance DMEM) were seeded into one 35 mm well equipped with the IMT system and allowed to grow to ˜70% confluence. […] In the IMT-siRNA conditions, IMT was initiated at the time of transfection and maintained for the entire 48 h, after which the extent of target knockdown and GBM cell viability were assessed.
Cell viability was evaluated using the 3-(4,5-dimethylthiazol-2-yl)-2,5-diphenyltetrazolium (MTT) spectral analysis (Sigma Aldrich). […]

[3] = temozolomide 50 μM combined with IMT (4 V, 130 Hz)
[4] = temozolomide 50 μM, with concomitant IMT (4 V, 130 Hz), representative scatterplot
[5] = temozolomide 50 μM, without IMT, representative scatterplot

With `Cn1nnc2c(C(N)=O)ncn2c1=O` [temozolomide] the “combined fraction of apoptotic (annexin+) and dead (annexin+ and PI+) GBM cells” value ([1]; single-modality temozolomide 50 μM) was 16.9±7.4%, the “combined fraction of apoptotic (annexin+) and dead (annexin+ and PI+) GBM cells” value [1, 3] was 52.4±21.8% and the “dead cells (annexin and PI-positive), FIG. 4 scatterplot” value [1, 4] was 16%. For the same compound, the “live cells, FIG. 4 scatterplot” value [1, 4] was 25.2%, the “apoptotic cells (annexin-positive), FIG. 4 scatterplot” value [1, 5] was 14.1% and the “dead cells (annexin and PI-positive), FIG. 4 scatterplot” value [1, 5] was 9.4%. The “live cells, FIG. 4 scatterplot” value [1, 5] was 76.1%, the viability at 50 µM ([2]; Homo sapiens, temozolomide 50 μM alone, read-out: viability relative to untreated cells (MTT)) was 69.7 ± 11.8% and the “viability relative to untreated cells (MTT)” value [2, 3] was 29.1±3.2%.
